Laboratory results from patent US9550792B2, “Polycyclic substituted pyrazole kinase activity inhibitors and use thereof” (priority 2013, dated 2017).
In brackets after ≈: the same amount, converted by molar mass. Read-outs that look alike come from different tables or passages of the source.

Key:
CDK9/cyclin K = CDK9/cyclin K (Homo sapiens, UniProt P50750); assay: Kinase IC50, 33P labeled isotope method; type: biochemical; details: 20 μM ATP
FLT4/VEGFR3 = FLT4/VEGFR3 (Homo sapiens, UniProt P35916); assay: Kinase IC50, 33P labeled isotope method; type: biochemical
GSK3b = GSK3b (Homo sapiens, UniProt P49841); assay: Kinase IC50, 33P labeled isotope method; type: biochemical; details: 20 μM ATP
FLT3 = biological target: T1, FLT3 (Homo sapiens, UniProt P36888); assay: Kinase IC50, 33P labeled isotope method; type: biochemical; details: 20 μM ATP
T1 sequence (P36888 610-943 limits assumed): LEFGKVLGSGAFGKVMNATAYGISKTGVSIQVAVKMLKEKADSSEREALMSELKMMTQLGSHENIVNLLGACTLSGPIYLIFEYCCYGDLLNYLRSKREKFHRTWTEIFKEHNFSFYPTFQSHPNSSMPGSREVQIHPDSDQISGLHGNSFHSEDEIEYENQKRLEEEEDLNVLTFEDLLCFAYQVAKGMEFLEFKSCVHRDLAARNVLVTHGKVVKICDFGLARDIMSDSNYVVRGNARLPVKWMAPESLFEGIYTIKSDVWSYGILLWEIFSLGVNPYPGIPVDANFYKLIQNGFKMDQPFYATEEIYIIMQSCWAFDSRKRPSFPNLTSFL

[1] = test system: Candida albicans - ATCC 36082; assay: Antifungal activity, modified broth microdilution; type: cell-based; details: Candida albicans, ATCC36082; 48 hours at 35, approximately 50% reduction of growth
Description: (§1) The test microorganisms are maintained on Sabourahd Dextrose Agar slant at 4[…]. Singlet suspension of each microorganism is prepared by growing the yeast overnight at 27[…] on a rotating drum in yeast-nitrogen base broth (YNB) with amino acids (Difco, Detroit, Mich.), (pH 7.0) and 0.05 morpholine propanesulphonic acid (MOPS). […] The activity of the test compound is determined using a modified broth microdilution technique. […] Well 12 serves as a growth control. […] Inoculated plate is incubated for 48 hours at 35 °C. […] Minimal Cytolytic Concentration (MCC) is determined by subculturing all wells from the 96-well plate onto a Sabourahd Dextrose Agar (SDA) plate, incubating for 1-2 days at 35 °C, and then checking viability.

Candida parapsilosis = assay: Antifungal activity, modified broth microdilution; type: cell-based; details: Lodderomyces parapsilosis; 48 hours at 35, approximately 50% reduction of growth
Description: as §1

Candida tropicalis = assay: Antifungal activity, modified broth microdilution; type: cell-based; details: Candida tropicalis; 48 hours at 35, approximately 50% reduction of growth
Description: as §1

Cryptococcus neoformans = assay: Antifungal activity, modified broth microdilution; type: cell-based; details: Cryptococcus neoformans; 48 hours at 35, approximately 50% reduction of growth
Description: as §1

Phytophthora infestans = type: in vivo
[2] = test system: colon cancer cell line HCT116; assay: Anti-tumor activity in vitro, MTT method; type: cell-based; details: Homo sapiens, HCT-116, 48 h
[3] = test system: liver cancer cell line 7721; assay: Anti-tumor activity in vitro, MTT method; type: cell-based; details: 48 h, read-out: 7721 (IC50/μM)
lung cancer cell H1299 = assay: Anti-tumor activity in vitro, MTT method; type: cell-based; details: Homo sapiens, NCI-H1299, 48 h, read-out: H1299 (IC50/μM)
[4] = Measurement of lipid-water partition coefficient (Log P); type: physicochemical; details: n-octanol/distilled water, 25° C.
Description: n-octanol and distilled water were allowed to saturate each other for 24 h. An amount of the sample was weighed accurately into a 50 mL volumetric flask and metered with n-octanol that was saturated with water (the sample was dissolved completely). A 10 mL solution of the sample in n-octanol was placed in a 50 mL triangular flask, to which was added 10 mL distilled water which was saturated with n-octanol. The mixture was equilibrated (125 rpm, 72 h) at 25° C. with a constant temperature vibrator. The lipid-water partition coefficient was calculated by the concentrations of the drug in the n-octanol stock solution before the experiment and in the n-octanol layer after experiment.

Plasma stability = type: in vitro ADME; details: rat plasma
Description: 300 μL blood collected from the rat was mixed with 30 μL methanol and 2 mL ethyl acetate. The samples were vortexed for 3 min and centrifuged at 4000 rpm for 15 min. The supernatant was introduced into another centrifugal tube. The lower layer was repeatedly extracted and then the supernatants were combined and dried with nitrogen gas. After redissolution with 150 μL methanol, they were filtered by 0.22 μm membrane and then subjected to analysis with a injection volume of 20 μL.
[…] The samples were prepared according to the method of 3.1. 20 μL were introduced into the HPLC system and the peak area is recorded for analysis to determine the stability of compound 1 and 2 in plasma.

Chain of CDK9/cyclin K (P50750 19-315 limits assumed): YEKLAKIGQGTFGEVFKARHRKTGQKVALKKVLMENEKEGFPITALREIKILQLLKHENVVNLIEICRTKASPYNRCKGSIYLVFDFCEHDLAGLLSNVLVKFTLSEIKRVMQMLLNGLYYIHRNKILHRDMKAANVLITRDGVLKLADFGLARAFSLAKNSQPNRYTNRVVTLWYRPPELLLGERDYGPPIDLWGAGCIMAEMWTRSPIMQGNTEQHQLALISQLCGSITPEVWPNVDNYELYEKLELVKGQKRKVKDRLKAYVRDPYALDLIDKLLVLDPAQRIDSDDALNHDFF
Chain of CDK9/cyclin K (O75909 whole entry partner): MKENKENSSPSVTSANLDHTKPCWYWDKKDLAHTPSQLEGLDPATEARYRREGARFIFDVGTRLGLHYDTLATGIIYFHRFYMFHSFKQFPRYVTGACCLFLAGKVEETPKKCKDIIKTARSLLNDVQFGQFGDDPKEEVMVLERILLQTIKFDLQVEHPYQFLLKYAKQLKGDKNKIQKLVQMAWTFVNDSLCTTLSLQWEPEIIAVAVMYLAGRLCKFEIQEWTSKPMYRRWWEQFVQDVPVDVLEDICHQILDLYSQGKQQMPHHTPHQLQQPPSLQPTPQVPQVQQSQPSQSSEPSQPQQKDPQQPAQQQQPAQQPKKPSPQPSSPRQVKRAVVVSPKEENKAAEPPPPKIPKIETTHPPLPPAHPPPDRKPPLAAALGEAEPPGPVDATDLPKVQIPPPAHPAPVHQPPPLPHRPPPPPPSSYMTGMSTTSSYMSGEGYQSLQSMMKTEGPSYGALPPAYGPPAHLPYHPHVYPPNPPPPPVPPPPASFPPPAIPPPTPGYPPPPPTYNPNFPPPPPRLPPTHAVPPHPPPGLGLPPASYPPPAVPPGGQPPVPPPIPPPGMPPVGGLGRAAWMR
Chain of GSK3b (P49841 56-340 limits assumed): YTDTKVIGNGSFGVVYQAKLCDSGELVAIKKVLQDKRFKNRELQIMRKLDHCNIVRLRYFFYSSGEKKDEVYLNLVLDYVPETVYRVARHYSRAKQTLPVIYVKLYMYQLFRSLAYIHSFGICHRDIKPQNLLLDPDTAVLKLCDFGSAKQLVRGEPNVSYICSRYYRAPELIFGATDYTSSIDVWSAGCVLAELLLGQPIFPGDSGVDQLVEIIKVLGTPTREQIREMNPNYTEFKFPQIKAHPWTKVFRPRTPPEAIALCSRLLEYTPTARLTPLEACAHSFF
Chain of FLT4/VEGFR3 (P35916 845-1173 limits assumed): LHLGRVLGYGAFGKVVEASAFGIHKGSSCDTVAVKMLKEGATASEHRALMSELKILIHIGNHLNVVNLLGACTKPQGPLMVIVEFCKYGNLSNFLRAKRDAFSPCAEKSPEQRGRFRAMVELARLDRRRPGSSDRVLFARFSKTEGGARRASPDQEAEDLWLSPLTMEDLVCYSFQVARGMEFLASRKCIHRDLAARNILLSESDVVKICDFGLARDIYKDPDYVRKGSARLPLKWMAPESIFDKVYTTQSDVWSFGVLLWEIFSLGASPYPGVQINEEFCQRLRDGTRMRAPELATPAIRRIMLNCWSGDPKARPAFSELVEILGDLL

Compound | IC50 (CDK9/cyclin K) | IC50 (GSK3b) | melting point | IC50 (FLT3) | MIC [1] | MIC (Candida parapsilosis) | MIC (Candida tropicalis) | MIC (Cryptococcus neoformans) | Severity of tomato leaf blight (Phytophthora infestans; 0.0001 (unit not given)) | Severity of tomato leaf blight (Phytophthora infestans; 0.001 (unit not given)) | Severity of tomato leaf blight (Phytophthora infestans; 0.01 (unit not given)) | Severity of tomato leaf blight (Phytophthora infestans; 0.1 (unit not given)) | also measured
Cc1cc2c(Nc3c[nH]nc3C(=O)Nc3ccc(CN4CCN(C)CC4)cc3)ncnc2s1 [Compound I-3, 4-(4-(6-methylthieno[2,3-d]pyrimidinyl)amino)-N-(4-((4-methyl-1-piperazinyl)methyl)phenyl)-1H-3-pyrazolecarboxamide] | 0.037 µM | 0.001 µM | 235 to 238 °C |  |  |  |  |  |  |  |  |  | IC50 (FLT4/VEGFR3; 20 μM ATP, read-out: IC50* FLT4/VEGFR3): 0.004 µM
CN1CCN(Cc2ccc(NC(=O)c3n[nH]cc3Nc3ncnc4[nH]ccc34)cc2)CC1 [Compound I-11, 4-(4-(7H-pyrrolo[2,3-d]pyrimidinyl)amino)-N-(4-((4-methyl-1-piperazinyl)methyl)phenyl)-1H-3-pyrazolecarboxamide] |  | 0.001 µM |  | 0.001 µM | 7.45 mg/L (≈ 17.3 µM) | 11.2 mg/L (≈ 26 µM) | 7.72 mg/L (≈ 17.9 µM) | 15 mg/L (≈ 34.8 µM) | +++ (40-60% blight) | ++ (15-40% blight) | + (0-15% blight) | − | IC50 (FLT4/VEGFR3): 0.004 µM
CN1CCN(Cc2ccc(NC(=O)c3n[nH]cc3Nc3ncnc4sccc34)cc2)CC1 [Compound I-1, 4-(4-thieno[2,3-d]pyrimidinylamino)-N-(4-((4-methyl-1-piperazinyl)methyl)phenyl)-1H-3-pyrazole carboxamide] | 0.039 µM |  |  |  | 2.9 mg/L (≈ 6.47 µM) | 2.08 mg/L (≈ 4.64 µM) | 2.3 mg/L (≈ 5.13 µM) | 3.64 mg/L (≈ 8.11 µM) | +++ (40-60% blight) | ++ (15-40% blight) | + (0-15% blight) | − | IC50 ([2]; read-out: HCT116 (IC50/μM)): 0.25 µM; IC50 ([2]; read-out: HCT-116 (IC50/μM)): 0.13 µM; IC50 [3]: 6.23 µM; IC50 (lung cancer cell H1299): 3.3 µM; logP at 72 h [4]: 1.27; plasma stability in 24 h (in words) (Plasma stability): good plasma stability; Plasma stability (HPLC reading) (Plasma stability; Time 0 h): 2.16; Plasma stability (HPLC reading) (Plasma stability; Time 1 h): 2.24; Plasma stability (HPLC reading) (Plasma stability; Time 2 h): 2.22; Plasma stability (HPLC reading) (Plasma stability; Time 3 h): 2.12; Plasma stability (HPLC reading) (Plasma stability; Time 5 h): 2.11; Plasma stability (HPLC reading) (Plasma stability; Time 8 h): 1.91; Plasma stability (HPLC reading) (Plasma stability; Time 12 h): 1.84; Plasma stability (HPLC reading) (Plasma stability; Time 24 h): 1.95
Cc1cc2c(Nc3c[nH]nc3C(=O)Nc3ccc(CN4CCN(C)CC4)cc3)nccc2s1 [Compound I-27, 4-(4-(2-methylthieno[3,2-c]pyridyl)amino)-N-(4-((4-methyl-1-piperazinyl)methyl)phenyl)-1H-3-pyrazolecarboxamide] | 0.043 µM | 0.001 µM | 267 to 269 °C | 0.001 µM | 5.48 mg/L (≈ 11.9 µM) | 1.02 mg/L (≈ 2.21 µM) | 3.57 mg/L (≈ 7.73 µM) | 4.06 mg/L (≈ 8.8 µM) | ++++ (>60% blight) | ++ (15-40% blight) | + (0-15% blight) | − | 
O=C(Nc1ccc(CN2CCOCC2)cc1)c1n[nH]cc1Nc1ncnc2sccc12 [Compound I-2, 4-(4-thieno[2,3-d]pyrimidinylamino)-N-(4-((4-morpholinyl)methyl)phenyl)-1H-3-pyrazolecarboxamide] |  |  | 262 to 265 °C |  |  |  |  |  |  |  |  |  | logP at 72 h [4]: 1.28; plasma stability in 24 h (in words) (Plasma stability): good plasma stability; Plasma stability (HPLC reading) (Plasma stability; Time 0 h): 2.36; Plasma stability (HPLC reading) (Plasma stability; Time 1 h): 2.34; Plasma stability (HPLC reading) (Plasma stability; Time 2 h): 2.29; Plasma stability (HPLC reading) (Plasma stability; Time 3 h): 2.21; Plasma stability (HPLC reading) (Plasma stability; Time 5 h): 2.16; Plasma stability (HPLC reading) (Plasma stability; Time 8 h): 2.11; Plasma stability (HPLC reading) (Plasma stability; Time 12 h): 1.97; Plasma stability (HPLC reading) (Plasma stability; Time 24 h): 1.85
CN1CCN(Cc2ccc(NC(=O)c3n[nH]cc3Nc3ncnc4occc34)cc2)CC1 [Compound I-21, 4-(4-furo[2,3-d]pyrimidinylamino)-N-(4-((4-methyl-1-piperazinyl)methyl)phenyl)-1H-3-pyrazolecarboxamide] | 0.045 µM | 0.001 µM | 255 to 257 °C | 0.001 µM | 7.82 mg/L (≈ 18.1 µM) | 9.76 mg/L (≈ 22.6 µM) | 8.29 mg/L (≈ 19.2 µM) | 13.8 mg/L (≈ 32 µM) | ++++ (>60% blight) | ++ (15-40% blight) | + (0-15% blight) | − | IC50 ([2]; read-out: HCT-116 (IC50/μM)): 9.58 µM; IC50 [3]: 17.4 µM; IC50 (lung cancer cell H1299): 7.66 µM
Cc1cc2c(Nc3c[nH]nc3C(=O)Nc3ccc(CN4CCN(C)CC4)cc3)ncnc2[nH]1 [Compound I-13, 4-(4-(6-methyl-7H-pyrrolo[2,3-d]pyrimidinyl)amino)-N-(4-((4-methyl-1-piperazinyl)methyl)phenyl)-1H-3-pyrazolecarboxamide] | 0.043 µM | 0.001 µM | 268 to 270 °C | 0.001 µM | 5.85 mg/L (≈ 13.1 µM) | 0.98 mg/L (≈ 2.2 µM) | 3.24 mg/L (≈ 7.27 µM) | 4.23 mg/L (≈ 9.49 µM) | ++ (15-40% blight) | ++ (15-40% blight) | + (0-15% blight) | − | 
